Data reported in patent US20250197409A1, “BIFUNCTIONAL COMPOUND AND PHARMACEUTICAL COMPOSITION COMPRISING THE BIFUNCTIONAL COMPOUND, AND METHOD FOR TREATING ANDROGEN RECEPTOR RELATED DISEASE BY USING THE SAME” (ANHORN MEDICINES CO., LTD., priority 2022, published 2025).
Like-named read-outs stand apart in the source and are kept apart here.

Target: T1, androgen receptor (Homo sapiens, UniProt P10275, T878A)
T1 construct: host or cells: LNCaP.FGC
Test: Androgen receptor degradation assay using Western blot analysis
Assay type: cell-based
Method: Cells not treated with any of the above-mentioned compounds are used as a negative control.
The internal loading control GAPDH was detected using a mouse monoclonal antibody (1:5000) (GTX627408, GeneTex International Corp., HsinChu City, Taiwan R.O.C.) and a goat anti-mouse HRP-conjugated secondary antibody (1:5000 dilution) (C04001, Croyez Bioscience Co., Ltd., Taipei City, Taiwan R.O.C.).
AR remaining percentage was determined by the intensity difference of AR signals (each was normalized by the corresponding internal loading control GAPDH) between the protein samples from the untreated cells (100%) and those from the treated cells. “Cpd. #” indicates the compound number hereinabove.
In addition, several compounds were selected to prepare a treatment stock solutions at 100 nM in RPMI medium. The treatment stock solutions were separately serially diluted (10×) with RPMI medium for treating LNCaP.FGC cells seeded with 2×10^5 cells per well in 24-well tissue culture plates. A calibration curve was determined by the serial diluted samples for each compound, and the concentration needed for 50% AR degradation (AR DC50) for each compound was calculated.

[1] = 24 h, LNCaP.FGC cells, 100 nM, 24 hr, normalized to GAPDH, untreated cells = 100%; read-out: Androgen Receptor Remaining (%)
[2] = LNCaP.FGC cells, serial 10x dilutions from 100 nM; read-out: AR DC50 (concentration needed for 50% AR degradation)
[3] = 24 h, read-out: Androgen Receptor Remaining (%), LNCaP.FGC cells, 100 nM, 24 hr, normalized to GAPDH, untreated cells = 100%
[4] = LNCaP.FGC cells, 100 nM, 24 hr, normalized to GAPDH, untreated cells = 100%
[5] = read-out: AR DC50 (concentration needed for 50% AR degradation); LNCaP.FGC cells, serial 10x dilutions from 100 nM

T1 sequence (P10275 whole entry T878A): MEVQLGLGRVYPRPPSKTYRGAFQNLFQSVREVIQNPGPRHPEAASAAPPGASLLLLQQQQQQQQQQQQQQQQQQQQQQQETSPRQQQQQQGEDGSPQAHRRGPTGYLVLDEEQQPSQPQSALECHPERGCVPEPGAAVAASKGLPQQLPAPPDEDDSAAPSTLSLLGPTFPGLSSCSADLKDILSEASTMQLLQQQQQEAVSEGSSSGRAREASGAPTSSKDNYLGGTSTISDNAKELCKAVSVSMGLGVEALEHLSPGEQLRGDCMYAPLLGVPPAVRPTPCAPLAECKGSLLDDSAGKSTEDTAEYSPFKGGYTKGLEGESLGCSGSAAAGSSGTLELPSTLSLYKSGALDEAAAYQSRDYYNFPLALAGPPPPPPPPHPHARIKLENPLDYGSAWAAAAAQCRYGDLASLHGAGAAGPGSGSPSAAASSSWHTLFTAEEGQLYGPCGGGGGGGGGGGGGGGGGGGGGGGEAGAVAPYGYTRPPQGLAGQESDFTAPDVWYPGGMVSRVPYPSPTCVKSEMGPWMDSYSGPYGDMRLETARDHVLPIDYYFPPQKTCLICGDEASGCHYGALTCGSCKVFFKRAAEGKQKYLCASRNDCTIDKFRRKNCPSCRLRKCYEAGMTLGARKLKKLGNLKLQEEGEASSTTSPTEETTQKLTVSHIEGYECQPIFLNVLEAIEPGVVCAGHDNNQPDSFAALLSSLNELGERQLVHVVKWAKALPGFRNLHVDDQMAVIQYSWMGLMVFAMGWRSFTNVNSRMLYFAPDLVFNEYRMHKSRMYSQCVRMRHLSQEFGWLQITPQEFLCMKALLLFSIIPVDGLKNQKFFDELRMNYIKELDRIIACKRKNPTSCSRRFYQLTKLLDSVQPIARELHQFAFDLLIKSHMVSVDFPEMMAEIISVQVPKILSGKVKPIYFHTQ
T1 sequence (Q96SW2 whole entry partner): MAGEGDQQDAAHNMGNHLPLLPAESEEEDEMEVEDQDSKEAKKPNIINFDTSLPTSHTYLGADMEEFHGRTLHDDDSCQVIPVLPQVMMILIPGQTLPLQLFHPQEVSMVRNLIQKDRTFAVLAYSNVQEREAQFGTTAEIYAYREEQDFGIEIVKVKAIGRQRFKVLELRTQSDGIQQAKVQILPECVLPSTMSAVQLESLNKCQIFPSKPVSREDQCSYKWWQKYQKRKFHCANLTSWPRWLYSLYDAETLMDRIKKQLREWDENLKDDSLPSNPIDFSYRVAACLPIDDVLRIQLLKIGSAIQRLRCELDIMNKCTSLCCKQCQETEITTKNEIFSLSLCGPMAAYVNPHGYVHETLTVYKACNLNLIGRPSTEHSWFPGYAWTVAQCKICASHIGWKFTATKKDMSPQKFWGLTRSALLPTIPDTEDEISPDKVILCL

Compound: Cn1c2c(c3ccc(OCCN4CCN(c5ccc(C(=O)N[C@H]6C(C)(C)[C@H](Oc7ccc(C#N)c(Cl)c7)C6(C)C)cc5)CC4)cc31)C(=O)N(C1CCC(=O)NC1=O)C2=O (stereo partly shown) [Compound 1]
- remaining activity at 0.1 µM [1]: 47%
- DC50 [2]: 10 to 25 nM

Compound: CCn1c2c(c3ccc(OCCC4CCN(c5ccc(C(=O)N[C@H]6CC[C@H](Oc7ccc(C#N)c(Cl)c7)CC6)nn5)CC4)cc31)C(=O)N(C1CCC(=O)NC1=O)C2=O (stereo partly shown) [Compound 2]
- remaining activity at 0.1 µM [3]: 56%

Compound: Cn1c2c(c3ccc(OCCN4CCN(c5ccc(C(=O)N[C@H]6CC[C@H](Oc7ccc(C#N)c(Cl)c7)CC6)nn5)CC4)cc31)C(=O)N(C1CCC(=O)NC1=O)C2=O (stereo partly shown) [Compound 3]
- remaining activity at 0.1 µM [1]: 32%
- DC50 [2]: 25 to 100 nM

Compound: CCn1c2c(c3cc(OCCN4CCN(c5ccc(C(=O)N[C@H]6C(C)(C)[C@H](Oc7ccc(C#N)c(Cl)c7)C6(C)C)cc5)CC4)ccc31)C(=O)N(C1CCC(=O)NC1=O)C2=O (stereo partly shown) [Compound 4]
- remaining activity at 0.1 µM [3]: 66%

Compound: CCn1c2c(c3cc(OCCN4CCN(c5ccc(C(=O)N[C@H]6C(C)(C)[C@H](Oc7ccc(C#N)c(Cl)c7)C6(C)C)cn5)CC4)ccc31)C(=O)N(C1CCC(=O)NC1=O)C2=O (stereo partly shown) [Compound 5]
- remaining activity at 0.1 µM [3]: 51%

Compound: Cn1c2c(c3ccc(OCCN4CCN(c5ccc(C(=O)N[C@H]6C(C)(C)[C@H](Oc7ccc(C#N)c(Cl)c7)C6(C)C)cn5)CC4)cc31)C(=O)N(C1CCC(=O)NC1=O)C2=O (stereo partly shown) [Compound 6]
- remaining activity at 0.1 µM [1]: 31%
- DC50 [2]: 25 to 100 nM

Compound: CC1(C)[C@H](NC(=O)c2ccc(N3CCN(CCOc4ccc5c6c(sc5c4)C(=O)N(C4CCC(=O)NC4=O)C6=O)CC3)cn2)C(C)(C)[C@H]1Oc1ccc(C#N)c(Cl)c1 (stereo partly shown) [Compound 7]
- Androgen Receptor Remaining (%) [4]: 45%
- DC50 [2]: 25 to 100 nM

Compound: Cn1c2c(c3ccc(OCCCN4CCN(c5ccc(C(=O)N[C@H]6C(C)(C)[C@H](Oc7ccc(C#N)c(Cl)c7)C6(C)C)cn5)CC4)cc31)C(=O)N(C1CCC(=O)NC1=O)C2=O (stereo partly shown) [Compound 8]
- remaining activity at 0.1 µM [1]: 22%
- DC50 [2]: 10 to 25 nM

Compound: Cn1c2c(c3ccc(OCCN4CCN(c5ccc(C(=O)N[C@H]6C(C)(C)[C@H](Oc7ccc(C#N)c(Cl)c7)C6(C)C)nc5)CC4)cc31)C(=O)N(C1CCC(=O)NC1=O)C2=O (stereo partly shown) [Compound 9]
- remaining activity at 0.1 µM [1]: 73%
- DC50 [2]: > 100 nM

Compound: Cn1c2c(c3cc(OCCN4CCN(c5ccc(C(=O)N[C@H]6C(C)(C)[C@H](Oc7ccc(C#N)c(Cl)c7)C6(C)C)nc5)CC4)ccc31)C(=O)N(C1CCC(=O)NC1=O)C2=O (stereo partly shown) [Compound 10]
- remaining activity at 0.1 µM [1]: 37%
- DC50 [2]: 25 to 100 nM

Compound: Cn1c2c(c3ccc(OCCCN4CCN(c5ccc(C(=O)N[C@H]6C(C)(C)[C@H](Oc7ccc(C#N)c(Cl)c7)C6(C)C)nc5)CC4)cc31)C(=O)N(C1CCC(=O)NC1=O)C2=O (stereo partly shown) [Compound 11]
- remaining activity at 0.1 µM [1]: 73%

Compound: Cn1c2c(c3ccc(OCCCN4CCN(c5ccc(C(=O)N[C@H]6C(C)(C)[C@H](Oc7ccc(C#N)c(Cl)c7)C6(C)C)cc5)CC4)cc31)C(=O)N(C1CCC(=O)NC1=O)C2=O (stereo partly shown) [Compound 12]
- remaining activity at 0.1 µM [1]: 42%
- DC50 [2]: 25 to 100 nM

Compound: CC(C)n1c2c(c3cc(OCCN4CCN(c5ccc(C(=O)N[C@H]6C(C)(C)[C@H](Oc7ccc(C#N)c(Cl)c7)C6(C)C)nc5)CC4)ccc31)C(=O)N(C1CCC(=O)NC1=O)C2=O (stereo partly shown) [Compound 13]
- remaining activity at 0.1 µM [3]: 155%

Compound: CC1(C)[C@H](NC(=O)c2ccc(N3CCN(CCCOc4ccc5c6c(sc5c4)C(=O)N(C4CCC(=O)NC4=O)C6=O)CC3)cn2)C(C)(C)[C@H]1Oc1ccc(C#N)c(Cl)c1 (stereo partly shown) [Compound 14]
- remaining activity at 0.1 µM [1]: 70%

Compound: Cn1c2c(c3cc(OCCN4CCN(c5ccc(C(=O)N[C@H]6C(C)(C)[C@H](Oc7ccc(C#N)c(Cl)c7)C6(C)C)cc5)CC4)ccc31)C(=O)N(C1CCC(=O)NC1=O)C2=O (stereo partly shown) [Compound 15]
- remaining activity at 0.1 µM [1]: 106%

Compound: CC(C)n1c2c(c3cc(OCCN4CCN(c5ccc(C(=O)N[C@H]6C(C)(C)[C@H](Oc7ccc(C#N)c(Cl)c7)C6(C)C)cn5)CC4)ccc31)C(=O)N(C1CCC(=O)NC1=O)C2=O (stereo partly shown) [Compound 16]
- remaining activity at 0.1 µM [3]: 96%

Compound: CC(C)n1c2c(c3cc(OCCN4CCN(c5ccc(C(=O)N[C@H]6C(C)(C)[C@H](Oc7ccc(C#N)c(Cl)c7)C6(C)C)cc5)CC4)ccc31)C(=O)N(C1CCC(=O)NC1=O)C2=O (stereo partly shown) [Compound 17]
- remaining activity at 0.1 µM [3]: 127%

Compound: CC1(C)[C@H](NC(=O)c2ccc(N3CCN(CCOc4ccc5c6c(sc5c4)C(=O)N(C4CCC(=O)NC4=O)C6=O)CC3)cn2)C(C)(C)[C@H]1Oc1ccc(C#N)c(Cl)c1 (stereo partly shown) [Compound 18]
- Androgen Receptor Remaining (%) [4]: 99%

Compound: Cn1c2c(c3cc(OCCN4CCN(c5ccc(C(=O)N[C@H]6C(C)(C)[C@H](Oc7ccc(C#N)c(Cl)c7)C6(C)C)cn5)CC4)ccc31)C(=O)N(C1CCC(=O)NC1=O)C2=O (stereo partly shown) [Compound 19]
- remaining activity at 0.1 µM [1]: 73%

Compound: CCn1c2c(c3ccc(OCCCN4CCN(c5ccc(C(=O)N[C@H]6C(C)(C)[C@H](Oc7ccc(C#N)c(Cl)c7)C6(C)C)cn5)CC4)cc31)C(=O)N(C1CCC(=O)NC1=O)C2=O (stereo partly shown) [Compound 20]
- remaining activity at 0.1 µM [3]: 63%

Compound: CCn1c2c(c3ccc(OCCCN4CCN(c5ccc(C(=O)N[C@H]6C(C)(C)[C@H](Oc7ccc(C#N)c(Cl)c7)C6(C)C)cc5)CC4)cc31)C(=O)N(C1CCC(=O)NC1=O)C2=O (stereo partly shown) [Compound 21]
- remaining activity at 0.1 µM [3]: 92%

Compound: CCCn1c2c(c3ccc(OCCCN4CCN(c5ccc(C(=O)N[C@H]6C(C)(C)[C@H](Oc7ccc(C#N)c(Cl)c7)C6(C)C)cn5)CC4)cc31)C(=O)N(C1CCC(=O)NC1=O)C2=O (stereo partly shown) [Compound 22]
- remaining activity at 0.1 µM [3]: 89%

Compound: CCCn1c2c(c3ccc(OCCCN4CCN(c5ccc(C(=O)N[C@H]6C(C)(C)[C@H](Oc7ccc(C#N)c(Cl)c7)C6(C)C)cc5)CC4)cc31)C(=O)N(C1CCC(=O)NC1=O)C2=O (stereo partly shown) [Compound 23]
- remaining activity at 0.1 µM [3]: 88%

Compound: Cn1c2c(c3cccc(OCCCN4CCN(c5ccc(C(=O)N[C@H]6C(C)(C)[C@H](Oc7ccc(C#N)c(Cl)c7)C6(C)C)cn5)CC4)c31)C(=O)N(C1CCC(=O)NC1=O)C2=O (stereo partly shown) [Compound 24]
- remaining activity at 0.1 µM [1]: 62%

Compound: Cn1c2c(c3cccc(OCCCN4CCN(c5ccc(C(=O)N[C@H]6C(C)(C)[C@H](Oc7ccc(C#N)c(Cl)c7)C6(C)C)cc5)CC4)c31)C(=O)N(C1CCC(=O)NC1=O)C2=O (stereo partly shown) [Compound 25]
- remaining activity at 0.1 µM [1]: 80%

Compound: CCn1c2c(c3ccc(OCCCN4CCN(c5ccc(C(=O)N[C@H]6CC[C@H](Oc7ccc(C#N)c(Cl)c7)CC6)cn5)CC4)cc31)C(=O)N(C1CCC(=O)NC1=O)C2=O (stereo partly shown) [Compound 26]
- remaining activity at 0.1 µM [3]: 75%

Compound: CCn1c2c(c3ccc(OCCCN4CCN(c5ccc(C(=O)N[C@H]6CC[C@H](Oc7ccc(C#N)c(Cl)c7)CC6)cc5)CC4)cc31)C(=O)N(C1CCC(=O)NC1=O)C2=O (stereo partly shown) [Compound 27]
- remaining activity at 0.1 µM [3]: 107%

Compound: Cn1c2c(c3ccc(OC4CCN(CC5CCN(c6ncc(C(=O)N[C@H]7CC[C@H](Oc8ccc(C#N)c(Cl)c8)CC7)cn6)CC5)CC4)cc31)C(=O)N(C1CCC(=O)NC1=O)C2=O (stereo partly shown) [Compound 28]
- DC50 [2]: 25 to 100 nM

Compound: CCn1c2c(c3ccc(OCCN4CCN(c5ccc(C(=O)N[C@H]6C(C)(C)[C@H](Oc7ccc(C#N)c(Cl)c7)C6(C)C)cc5)CC4)cc31)C(=O)N(C1CCC(=O)NC1=O)C2=O (stereo partly shown) [Compound 30]
- remaining activity at 0.1 µM [3]: 56%

Compound: CCn1c2c(c3ccc(OCCN4CCN(c5ccc(C(=O)N[C@H]6CC[C@H](Oc7ccc(C#N)c(Cl)c7)CC6)cn5)CC4)cc31)C(=O)N(C1CCC(=O)NC1=O)C2=O (stereo partly shown) [Compound 31]
- remaining activity at 0.1 µM [3]: 47%
- DC50 [5]: 25 to 100 nM

Compound: CCn1c2c(c3ccc(OCCN4CCN(c5ccc(C(=O)N[C@H]6CC[C@H](Oc7ccc(C#N)c(Cl)c7)CC6)cc5)CC4)cc31)C(=O)N(C1CCC(=O)NC1=O)C2=O (stereo partly shown) [Compound 32]
- remaining activity at 0.1 µM [3]: 59%

Compound: Cn1c2c(c3ccc(OCC4CCN(c5ccc(C(=O)N[C@H]6CC[C@H](Oc7ccc(C#N)c(Cl)c7)CC6)cn5)CC4)cc31)C(=O)N(C1CCC(=O)N(CO)C1=O)C2=O (stereo partly shown) [Compound 34]
- remaining activity at 0.1 µM [1]: 75%

Compound: Cn1c2c(c3ccc(OCC4CCN(c5ccc(C(=O)N[C@H]6CC[C@H](Oc7ccc(C#N)c(Cl)c7)CC6)cn5)CC4)cc31)C(=O)N(C1CCC(=O)NC1=O)C2=O (stereo partly shown) [Compound 35]
- remaining activity at 0.1 µM [1]: 75%

Compound: CCn1c2c(c3ccc(OCC(C)COC4CCN(c5ccc(C(=O)N[C@H]6CC[C@H](Oc7ccc(C#N)c(Cl)c7)CC6)nn5)CC4)cc31)C(=O)N(C1CCC(=O)NC1=O)C2=O (stereo partly shown) [Compound 36]
- DC50 [5]: 10 to 25 nM

Compound: CCn1c2c(c3ccc(OCCCN4CCN(c5ccc(C(=O)N[C@H]6C(C)(C)[C@H](Oc7ccc(C#N)c(Cl)c7)C6(C)C)nn5)CC4)cc31)C(=O)N(C1CCC(=O)NC1=O)C2=O (stereo partly shown) [Compound 37]
- remaining activity at 0.1 µM [3]: 55%

Compound: CCn1c2c(c3ccc(OCCCN4CCC(c5ncc(C(=O)N[C@H]6CC[C@H](Oc7ccc(C#N)c(Cl)c7)CC6)cn5)CC4)cc31)C(=O)N(C1CCC(=O)NC1=O)C2=O (stereo partly shown) [Compound 38]
- DC50 [5]: 25 to 100 nM

Compound: Cn1c2c(c3ccc(OCCCN4CCN(c5ccc(C(=O)N[C@H]6CC[C@H](Oc7ccc(C#N)c(Cl)c7)CC6)nn5)CC4)cc31)C(=O)N(C1CCC(=O)NC1=O)C2=O (stereo partly shown) [Compound 39]
- remaining activity at 0.1 µM [1]: 16%
- DC50 [2]: 10 to 25 nM

Compound: Cn1c2c(c3ccc(OCCCN4CCN(c5ccc(C(=O)N[C@H]6C(C)(C)[C@H](Oc7ccc(C#N)c(Cl)c7)C6(C)C)nn5)CC4)cc31)C(=O)N(C1CCC(=O)NC1=O)C2=O (stereo partly shown) [Compound 40]
- remaining activity at 0.1 µM [1]: 29%
- DC50 [2]: > 100 nM
